Test results as given in patent US7183276B2, “Azole compounds” (Takeda Pharmaceutical Company Limited, priority 2002, dated 2007).

Row | Compound | melting point [°C]
1 | CCOP(=O)(Cc1ccc(NC(=O)/C=C/c2sc(-n3cnc4ccccc43)nc2C(C)C)cc1)OCC | 198 to 199
2 | COC(=O)c1ccc(NC(=O)CCc2oc(-c3ccccc3)nc2-c2ccc(Cl)cc2)cc1 [Example 42, 3-[4-(4-chlorophenyl)-2-phenyl-5-oxazolyl]-N-[4-(methoxycarbonyl)phenyl]propionamide] | 198 to 200
3 | COc1cc(CNC(=O)CCc2oc(-n3cnc4ccccc43)nc2-c2ccc(Cl)cc2)cc(OC)c1OC [Example 169, 3-[2-(1H-benzimidazol-1-yl)-4-(4-chlorophenyl)-5-oxazolyl]-N-(3,4,5-trimethoxybenzyl)propionamide] | 169 to 170
4 | CCCc1nc(-c2ccc(Cl)cc2)c(CCC(=O)Nc2ccc(CP(=O)(OCC)OCC)cc2)o1 | 108 to 109
5 | N#CCc1cccc(NC(=O)CCc2oc(-n3cnc4ccccc43)nc2-c2ccc(Cl)cc2)c1 [Example 110, 3-[2-(1H-benzimidazol-1-yl)-4-(4-chlorophenyl)-5-oxazolyl]-N-[3-(cyanomethyl)phenyl]propionamide] | 188 to 189
6 | CCOP(=O)(OCC)C(OC)c1ccc(NC(=O)CCc2oc(-n3cnc4ccccc43)nc2-c2ccc(Cl)cc2)cc1 (centres unmarked) | 191 to 192
7 | CCCc1nc(-c2ccc(Cl)cc2)c(CCC(N)=O)o1 [Example 29, 3-[4-(4-chlorophenyl)-2-propyl-5-oxazolyl]propionamide] | 150 to 151
8 | CCCc1nc(-c2ccc(Cl)cc2)c(CCC(=O)N2CCN(CC3CCN(C)CC3)CC2)o1.Cl.Cl | 218
9 | O=C(CCc1oc(-c2ccccc2)nc1-c1ccc(Cl)cc1)Nc1ccc(CN2CCCCC2)cc1 [Example 95, 3-[4-(4-chlorophenyl)-2-phenyl-5-oxazolyl]-N-{4-[(1-piperidinyl)methyl]phenyl}propionamide] | 223 to 225
10 | O=C(CCc1oc(-n2cnc3ccccc32)nc1-c1ccc(Cl)cc1)N1CCC(CO)CC1 [Example 305, (1-{3-[2-(1H-benzoimidazol-1-yl)-4-(4-chlorophenyl)-5-oxazolyl]propanoyl}-4-piperidinyl)methanol] | 101 to 102
11 | CC(C)c1ccc(NC(=O)CCc2oc(-n3cnc4ccccc43)nc2-c2ccc(Cl)cc2)cc1 [Example 126, 3-[2-(1H-benzimidazol-1-yl)-4-(4-chlorophenyl)-5-oxazolyl]-N-(4-isopropylphenyl)propionamide] | 232 to 233
12 | Cc1ccc(CNC(=O)CCc2sc(-n3cnc4ccccc43)nc2-c2ccc(Cl)cc2)cc1 [Example 203, 3-[2-(1H-benzimidazol-1-yl)-4-(4-chlorophenyl)-5-thiazolyl]-N-(4-methylbenzyl)propionamide] | 191 to 192
13 | NC(=O)CCc1oc(N2CCN(c3ccccc3)CC2)nc1-c1ccc(Cl)cc1 [Example 31, 3-[4-(4-chlorophenyl)-2-(4-phenyl-1-piperazinyl)-5-oxazolyl]propionamide] | 187 to 188
14 | O=C(CCc1oc(-n2cnc3ccccc32)nc1-c1ccc(Cl)cc1)Nc1ccc(Cl)cc1 [Example 79, 3-[2-(1H-benzimidazol-1-yl)-4-(4-chlorophenyl)-5-oxazolyl]-N-(4-chlorophenyl)propionamide] | 248 to 249
15 | CCOP(=O)(Cc1ccc(NC(=O)CCc2sc(NC(=O)Nc3ccccc3)nc2-c2ccc(Cl)cc2)cc1)OCC | 175 to 176
16 | CCOP(=O)(Cc1cccc(NC(=O)CCCc2oc(-n3cnc4ccccc43)nc2-c2ccc(Cl)cc2)c1)OCC | 135 to 136
17 | CCOP(=O)(Cc1ccc(NC(=O)CCc2oc(-c3ccc(OC)cc3)nc2-c2ccc(Cl)cc2)cc1)OCC | 141 to 142
18 | NC(=O)CCc1oc(Sc2ncccn2)nc1-c1ccc(Cl)cc1 [Example 33, 3-[4-(4-chlorophenyl)-2-(2-pyrimidinylsulfanyl)-5-oxazolyl]propionamide] | 194 to 195

More lines, now with the values ahead:

Row | melting point [°C] | Compound
19 | 294 to 295 | O=C(CCc1sc(-c2ccccc2)nc1-c1ccc(Cl)cc1)Nc1ccc(C(=O)O)cc1 [Example 64, 4-({3-[4-(4-chlorophenyl)-2-phenyl-5-thiazolyl]propanoyl}amino)benzoic acid]
20 | 225 to 226 | O=C(CCc1oc(-n2cnc3ccccc32)nc1-c1ccc(Cl)cc1)NCc1c(F)cccc1F [Example 156, 3-[2-(1H-benzimidazol-1-yl)-4-(4-chlorophenyl)-5-oxazolyl]-N-(2,6-difluorobenzyl)propionamide]
21 | 194 to 195 | CS(=O)(=O)CCNC(=O)CCc1oc(-n2cnc3ccccc32)nc1-c1ccc(Cl)cc1 [Example 302, 3-[2-(1H-benzoimidazol-1-yl)-4-(4-chlorophenyl)-5-oxazolyl]-N-[2-(methylsulfonyl)ethyl]propanamide]
22 | 153 to 154 | COc1ccccc1NC(=O)CCc1oc(-n2ccnc2C)nc1-c1ccc(Cl)cc1 [Example 71, 3-[4-(4-chlorophenyl)-2-(2-methyl-1-imidazolyl)-5-oxazolyl]-N-(2-methoxyphenyl)propionamide]
23 | 245 to 246 | N#CCc1ccc(NC(=O)Cc2sc(-n3cnc4ccccc43)nc2-c2ccc(Cl)cc2)cc1 [Example 219, 2-[2-(1H-benzimidazol-1-yl)-4-(4-chlorophenyl)-5-thiazolyl]-N-[4-(cyanomethyl)phenyl]acetamide]
24 | 155 to 156 | CCOP(=O)(Cc1ccc(NC(=O)CCc2oc(C)nc2-c2ccc(Cl)cc2)cc1)OCC
25 | 211 to 212 | CCOP(=O)(Cc1ccc(NC(=O)/C=C/c2sc(-n3cnc4ccccc43)nc2C(C)(C)C)cc1)OCC
26 | 197 to 198 | O=C(CCc1oc(-n2cnc3ccccc32)nc1-c1ccc(Cl)cc1)NCc1cc(F)ccc1F [Example 158, 3-[2-(1H-benzimidazol-1-yl)-4-(4-chlorophenyl)-5-oxazolyl]-N-(2,5-difluorobenzyl)propionamide]
27 | 198 to 200 | O=C(CCc1oc(-n2cnc3ccccc32)nc1-c1ccc(Cl)cc1)NCc1cc(F)cc(C(F)(F)F)c1 [Example 163, 3-[2-(1H-benzimidazol-1-yl)-4-(4-chlorophenyl)-5-oxazolyl]-N-[3-fluoro-5-(trifluoromethyl)benzyl]propionamide]
28 | 207 to 208 | CN(C)C(=O)Cc1ccc(NC(=O)CCc2oc(-n3cnc4ccccc43)nc2-c2ccc(Cl)cc2)cc1 [Example 142, 2-[4-({3-[2-(1H-benzimidazol-1-yl)-4-(4-chlorophenyl)-5-oxazolyl]propanoyl}amino)phenyl]-N,N-dimethylacetamide]
29 | 98 to 99 | CCOP(=O)(Cc1ccc(NC(=O)CCc2oc(-n3cnc4ccccc43)nc2-c2cccc(Cl)c2)cc1)OCC
30 | 135 to 140 | CCOC(=O)c1ccc(NC(=O)/C=C/c2oc(-c3ccccc3)nc2-c2ccc(Cl)cc2)cc1 [Example 56, (2E)-3-[4-(4-chlorophenyl)-2-phenyl-5-oxazolyl]-N-[4-(ethoxycarbonyl)phenyl]propenamide]
31 | 173 to 174 | CCOP(=O)(Cc1ccc(NC(=O)Cc2oc(-c3ccccc3)nc2-c2ccc(Cl)cc2)cc1)OCC
32 | 184 to 185 | CCOP(=O)(Cc1ccc(NC(=O)CCc2sc(NC(=O)c3ccccn3)nc2-c2ccc(Cl)cc2)cc1)OCC
33 | 255 to 256 | NS(=O)(=O)c1ccc(CNC(=O)CCc2oc(-n3cnc4ccccc43)nc2-c2ccc(Cl)cc2)cc1 [Example 151, N-[4-(aminosulfonyl)benzyl]-3-[2-(1H-benzimidazol-1-yl)-4-(4-chlorophenyl)-5-oxazolyl]propionamide]
34 | 226 to 227 | O=C(CCc1oc(-n2cnc3ccccc32)nc1-c1ccc(Cl)cc1)Nc1ccccc1 [Example 120, 3-[2-(1H-benzimidazol-1-yl)-4-(4-chlorophenyl)-5-oxazolyl]-N-phenylpropionamide]
35 | 144 to 145 | CCOP(=O)(Cc1ccc(NC(=O)CCc2sc(NC(=O)NCc3ccccc3)nc2-c2ccc(Cl)cc2)cc1)OCC
36 | 220 to 222 | Nc1nc(-c2ccc(Cl)cc2)c(CCC(=O)N2CCS(=O)(=O)CC2)s1 [Example 227B, 4-{3-[2-amino-4-(4-chlorophenyl)-5-thiazolyl]propanoyl}thiomorpholine-1,1-dioxide]
37 | 150 to 151 | CCOP(=O)(Cc1ccc(NC(=O)CCc2sc(-n3cnc4ccccc43)nc2-c2ccc(Cl)cc2)cc1)OCC
38 | 161 to 162 | COc1ccc(-c2nc(-n3cnc4ccccc43)oc2CCC(=O)N2CCC(O)CC2)cc1 [Example 248, 1-(3-[2-(1H-benzoimidazol-1-yl)-4-(4-methoxyphenyl)-5-oxazolyl]propanoyl)-4-piperidinol]
39 | 186 to 187 | N#Cc1ccccc1NC(=O)CCc1oc(-n2cnc3ccccc32)nc1-c1ccc(Cl)cc1 [Example 113, 3-[2-(1H-benzimidazol-1-yl)-4-(4-chlorophenyl)-5-oxazolyl]-N-(2-cyanophenyl)propionamide]
40 | 218 to 219 | Cc1ccc(CNC(=O)CCc2oc(-n3cnc4ccccc43)nc2-c2ccc(Cl)cc2)c(C)c1 [Example 175, 3-[2-(1H-benzimidazol-1-yl)-4-(4-chlorophenyl)-5-oxazolyl]-N-(2,4-dimethylbenzyl)propionamide]
41 | 160 to 161 | O=C(CCCc1sc(-n2cnc3ccccc32)nc1-c1ccc(Cl)cc1)NCc1cc(Br)ccc1F [Example 216, 4-[2-(1H-benzimidazol-1-yl)-4-(4-chlorophenyl)-5-thiazolyl]-N-(5-bromo-2-fluorobenzyl)butanamide]
42 | 196 to 198 | O=C(CCc1oc(-n2cnc3ccccc32)nc1-c1ccc(Cl)cc1)NCc1ccc(F)cc1Cl [Example 168, 3-[2-(1H-benzimidazol-1-yl)-4-(4-chlorophenyl)-5-oxazolyl]-N-(2-chloro-4-fluorobenzyl)propionamide]
43 | 159 to 160 | O=C(CCc1oc(-n2cnc3ccccc32)nc1-c1ccc(Cl)cc1)Nc1ccccc1CO [Example 109, 3-[2-(1H-benzimidazol-1-yl)-4-(4-chlorophenyl)-5-oxazolyl]-N-[2-(hydroxymethyl)phenyl]propionamide]
44 | 138 to 139 | Cc1ccc(CNC(=O)CCCc2sc(-n3cnc4ccccc43)nc2-c2ccc(Cl)cc2)cc1 [Example 217, 4-[2-(1H-benzimidazol-1-yl)-4-(4-chlorophenyl)-5-thiazolyl]-N-(4-methylbenzyl)butanamide]
